Assay results as given in ChEMBL document CHEMBL4402589, “Discovery of a Potent and Selective NF-κB-Inducing Kinase (NIK) Inhibitor That Has Anti-inflammatory Effects in Vitro and in Vivo” (J Med Chem, 2020).
Activity calls are given as the source filed them. The rule behind the calls is not given here.

Experiments:
[1] = molecular target: T1, Mitogen-activated protein kinase kinase kinase 14 (Homo sapiens, UniProt Q99558); test: Inhibition of recombinant human N-terminal GST-tagged NIK (318 to 947 residues) expressed in baculovirus infected Sf9 cells using ultrapure ATP as substrate measured after 1 hr by ADP-glo assay
T1 sequence (Q99558 whole entry, the tested form may be a part): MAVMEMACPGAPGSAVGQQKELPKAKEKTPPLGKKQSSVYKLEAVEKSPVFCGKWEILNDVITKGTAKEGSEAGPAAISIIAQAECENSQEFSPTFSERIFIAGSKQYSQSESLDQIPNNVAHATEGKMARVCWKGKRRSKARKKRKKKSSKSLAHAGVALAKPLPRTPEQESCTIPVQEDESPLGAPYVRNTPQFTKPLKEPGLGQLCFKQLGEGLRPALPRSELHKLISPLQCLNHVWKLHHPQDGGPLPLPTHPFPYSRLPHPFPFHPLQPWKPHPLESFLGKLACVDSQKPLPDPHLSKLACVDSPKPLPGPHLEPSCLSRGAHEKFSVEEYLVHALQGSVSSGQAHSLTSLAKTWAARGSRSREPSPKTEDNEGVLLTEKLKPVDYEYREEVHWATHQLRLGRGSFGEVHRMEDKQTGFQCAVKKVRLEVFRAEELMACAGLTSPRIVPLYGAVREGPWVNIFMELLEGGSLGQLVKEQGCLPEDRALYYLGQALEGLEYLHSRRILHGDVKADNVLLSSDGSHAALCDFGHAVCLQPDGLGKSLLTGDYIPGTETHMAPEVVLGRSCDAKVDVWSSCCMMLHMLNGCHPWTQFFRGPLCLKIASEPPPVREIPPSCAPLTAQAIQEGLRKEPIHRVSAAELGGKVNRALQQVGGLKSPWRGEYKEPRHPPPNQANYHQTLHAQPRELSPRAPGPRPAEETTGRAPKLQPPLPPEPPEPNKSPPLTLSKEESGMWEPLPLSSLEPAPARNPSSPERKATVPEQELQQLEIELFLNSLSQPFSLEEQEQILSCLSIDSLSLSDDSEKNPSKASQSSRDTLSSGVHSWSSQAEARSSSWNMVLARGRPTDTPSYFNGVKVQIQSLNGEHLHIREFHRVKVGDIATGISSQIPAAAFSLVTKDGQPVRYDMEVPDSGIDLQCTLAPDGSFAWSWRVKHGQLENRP

Hepatocyte = test: Down regulation of NIK expression in NIK/p100 adenoviruses infected C57BL/6 mouse primary hepatocytes at 5 uM measured after 16 hrs by Western blot analysis; format: functional, cell-based
[2] = molecular target: Mitogen-activated protein kinase kinase kinase 14 (Mus musculus) (UniProt Q9WUL6); test: Inhibition of NIK in NIK/p100 adenoviruses infected C57BL/6 mouse primary hepatocytes assessed as suppression of NIK-mediated proteolysis of p100 to p52 by measuring reduction in p52 level at 5 uM measured after 16 hrs by Western blot analysis
Mitogen-activated protein kinase kinase kinase 14 (Mus musculus), sequence (Q9WUL6 whole entry): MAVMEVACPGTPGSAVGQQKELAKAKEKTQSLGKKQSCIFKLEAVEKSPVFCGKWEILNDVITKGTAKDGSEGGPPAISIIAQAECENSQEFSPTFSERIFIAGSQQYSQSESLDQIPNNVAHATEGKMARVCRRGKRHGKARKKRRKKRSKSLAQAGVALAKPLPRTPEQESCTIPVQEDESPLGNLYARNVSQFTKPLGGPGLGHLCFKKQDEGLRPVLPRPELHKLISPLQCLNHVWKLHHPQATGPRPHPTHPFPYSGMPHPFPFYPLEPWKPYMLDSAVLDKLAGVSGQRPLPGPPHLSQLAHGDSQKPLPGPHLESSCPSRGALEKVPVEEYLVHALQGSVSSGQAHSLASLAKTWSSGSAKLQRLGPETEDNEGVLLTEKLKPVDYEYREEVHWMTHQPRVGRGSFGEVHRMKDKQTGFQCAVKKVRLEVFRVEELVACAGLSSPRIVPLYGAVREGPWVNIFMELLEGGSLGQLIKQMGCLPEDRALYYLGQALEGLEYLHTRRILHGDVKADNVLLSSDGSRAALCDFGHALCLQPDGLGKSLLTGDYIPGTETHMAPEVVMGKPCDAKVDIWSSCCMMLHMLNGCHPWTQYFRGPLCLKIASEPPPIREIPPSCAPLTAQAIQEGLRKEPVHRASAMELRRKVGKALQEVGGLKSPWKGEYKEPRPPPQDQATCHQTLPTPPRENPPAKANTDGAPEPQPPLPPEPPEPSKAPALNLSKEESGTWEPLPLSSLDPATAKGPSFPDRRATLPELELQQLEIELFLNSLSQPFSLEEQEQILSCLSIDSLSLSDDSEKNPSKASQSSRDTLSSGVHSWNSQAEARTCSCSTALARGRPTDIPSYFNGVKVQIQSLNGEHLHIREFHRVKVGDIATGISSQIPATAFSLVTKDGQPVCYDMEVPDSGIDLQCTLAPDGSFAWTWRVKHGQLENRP

Mus musculus = test: Antiinflammatory activity in CCl4-induced C57BL/6 mouse model of liver injury assessed as reduction in immune cell infiltration in liver at 25 mg/kg, po administered 30 mins prior to CCl4 addition followed by compound redosing at 3 hrs interval for 9 hrs and measured 12 hrs […] by F4/80/DAPI staining based immunofluorescence assay; format: functional, organism-based
[3] = molecular target: T1, Mitogen-activated protein kinase kinase kinase 14; test: Inhibition of human NIK using ATP as substrate by kinase-glo assay
[4] = Oral bioavailability in ICR mouse; format: ADME, organism-based; settings: in vivo

IC50 [1] [µM]	SMILES	also measured
0.0151	C[C@@](O)(C#Cc1ccc2c(c1)N(c1nc(N)ncc1Cl)CC2)c1nccs1	Activity (Hepatocyte): inactive; inhibition [2]: Active; Activity (Mus musculus): Active; IC50 [3]: 0.0042 µM
0.29	Cc1cc(C(C)(O)C#Cc2cccc(-c3c[nH]c4cnc(N)nc34)c2)no1 (stereo not drawn)	–
2.06	CC(O)(C#Cc1cccc(-n2cc(Cl)c3cnc(N)nc32)c1)c1nccs1 (stereo not drawn)	–
0.319	CC(O)(C#Cc1cc(F)cc(-c2c[nH]c3cnc(N)nc23)c1)c1nccs1 (stereo not drawn)	–
2.2	Cc1[nH]c2cnc(N)nc2c1-c1cccc(C#CC(C)(O)c2nccs2)c1 (stereo not drawn)	–
0.12	COc1ccc(C#CC(C)(O)c2nccs2)cc1-c1c[nH]c2cnc(N)nc12 (stereo not drawn)	–
0.29	COc1cc(C#CC(C)(O)c2nccs2)cc(-c2c[nH]c3cnc(N)nc23)c1 (stereo not drawn)	–
0.468	CC(O)(C#Cc1cccc(-c2c[nH]c3cnc(N)nc23)c1)c1cnccn1 (stereo not drawn)	–
0.218	CC(O)(C#Cc1cccc(-c2c[nH]c3cnc(N)nc23)c1)c1nccs1 (stereo not drawn)	–

The remaining lines, values behind:

SMILES	IC50 [1] [µM]	also measured
CC(O)(C#Cc1cc(-n2ccc3cnc(N)nc32)ccc1C#N)c1nccs1 (stereo not drawn)	0.219	–
CC(O)(C#Cc1cncc(-n2ccc3cnc(N)nc32)c1)c1nccs1 (stereo not drawn)	1.86	–
CC(O)(C#Cc1cc(C#N)cc(-n2ccc3cnc(N)nc32)c1)c1nccs1 (stereo not drawn)	2.06	–
COCCOc1ccc(-n2ccc3cnc(N)nc32)cc1C#CC(C)(O)c1nccs1 (stereo not drawn)	25.8	–
CN1CCCC(O)(C#Cc2cc(-n3ccc4cnc(N)nc43)ccn2)C1=O (stereo not drawn)	0.0257	–
CN(C)C(=O)c1ccc(-n2ccc3cnc(N)nc32)cc1C#CC(C)(O)c1nccs1 (stereo not drawn)	> 10	–
Nc1ncc2[nH]cc(-c3cccc(C#CC(O)c4nccs4)c3)c2n1 (stereo not drawn)	6.38	–
CC(O)(C#Cc1cc(-n2ccc3cnc(N)nc32)ccc1F)c1nccs1 (stereo not drawn)	0.204	–
CCC(O)(C#Cc1cc(-n2ccc3cnc(N)nc32)ccn1)c1nccs1 (stereo not drawn)	2.29	–
CN(C)CCOc1ccc(-n2ccc3cnc(N)nc32)cc1C#CC(C)(O)c1nccs1 (stereo not drawn)	> 10	–
CN1CCC(O)(C#Cc2cc(-n3ccc4cnc(N)nc43)ccn2)C1=O (stereo not drawn)	0.0261	bioavailability [4]: < 1%
COc1ccc(-n2ccc3cnc(N)nc32)cc1C#CC(C)(O)c1nccs1 (stereo not drawn)	1.75	–
CC(O)(C#Cc1cc(-n2ccc3cnc(N)nc32)ccn1)c1cnccn1 (stereo not drawn)	1.64	–
Nc1ncc2ccn(-c3ccnc(C#CC4(O)CCCC4)c3)c2n1	0.234	–
Nc1ncc2[nH]cc(-c3cccc(C#CC4(O)CCCC4)c3)c2n1	0.475	–
COc1nc(N)nc2c1ccn2-c1cccc(C#CC(C)(O)c2nccs2)c1 (stereo not drawn)	2.48	–
CC(O)(C#Cc1cc(-n2ccc3cnc(N)nc32)ccn1)C(=O)N1CCCC1 (stereo not drawn)	6.16	–
CC(O)(C#Cc1cc(-n2ccc3cnc(N)nc32)c(F)cc1F)c1nccs1 (stereo not drawn)	0.641	–
Nc1ncc2ccn(-c3ccnc(C#CC4(O)CCCCCC4)c3)c2n1	0.748	–
